Several values for one entry are separate records, joined by “and”; a condition that tells them apart may be missing. Equal entries are not always repeated.
Columns and labels:
Type in all cases: functional, Homo sapiens
[1] = test system: TERT-RPE1; assay: (§1) Here: values are normalized to the negative (DMSO; defined as 0% autophagy induction) and positive (250nM Torin1; mTOR inhibitor; defined as maximal inducer of autophagy = 100%) control compounds and represented as % of autophagy induction. […] The impact of autophagy induction on cells is complex and depends on the affected target. As such, the magnitude of a phenotype may not be equally mirrored in the %-value of autophagy induction and vice versa. The dynamics of the induction may indicate the mode of activation: e.g. activation via phosphorylation or a signaling cascade may occur fast, while activation via transcription factors may take considerably longer. […] Of note, treatment concentrations may be sub-optimal for specific compounds, leading to false negative annotations.; details: Culturing Media DMEM/F12 (1:1), 1 % Penicillin/Streptomycin, 10% Fetal bovin serum Add-On: No, Screening Media Control DMEM/F12 (1:1), Screening Media Samples DMEM/F12 (1:1)
[2] = test system: U2OS; assay: as §1; details: Culturing Media DMEM, 1 % Penicillin/Streptomycin, 10% Fetal bovin serum Add-On: No, Screening Media Control DMEM, Screening Media Samples DMEM
[3] = test system: U2OS; assay: as §1; details: Culturing Media DMEM, 1 % Penicillin/Streptomycin, 10% Fetal bovin serum Add-On: No, Screening Media Control DMEM, Screening Media Samples DMEM; remark: listed apart in the source
[4] = Compound Concentration 0.5 uM, Timepoint 12 hours
[5] = Compound Concentration 0.5 uM, Timepoint 24 hours
[6] = Compound Concentration 0.5 uM, Timepoint 36 hours
[7] = Compound Concentration 0.5 uM, Timepoint 60 hours
[8] = Compound Concentration 2 uM, Timepoint 12 hours
[9] = Compound Concentration 2 uM, Timepoint 24 hours
[10] = Compound Concentration 2 uM, Timepoint 36 hours
[11] = Compound Concentration 2 uM, Timepoint 60 hours
[12] = Compound Concentration 10 uM, Timepoint 12 hours
[13] = Compound Concentration 10 uM, Timepoint 24 hours
[14] = Compound Concentration 10 uM, Timepoint 36 hours
[15] = Compound Concentration 10 uM, Timepoint 60 hours

| SMILES | autophagy induction [2, 4] [%] | autophagy induction [2, 5] [%] | autophagy induction [2, 6] [%] | autophagy induction [2, 7] [%] | autophagy induction [2, 8] [%] | autophagy induction [2, 9] [%] | autophagy induction [2, 10] [%] | autophagy induction [2, 11] [%] | autophagy induction [2, 12] [%] | autophagy induction [2, 13] [%] | autophagy induction [2, 14] [%] | autophagy induction [2, 15] [%] | autophagy induction [3, 4] [%] | autophagy induction [3, 5] [%] | autophagy induction [3, 6] [%] | autophagy induction [3, 7] [%] | autophagy induction [3, 8] [%] | autophagy induction [3, 9] [%] | autophagy induction [3, 10] [%] | autophagy induction [3, 11] [%] | further results |
| --- | --- | --- | --- | --- | --- | --- | --- | --- | --- | --- | --- | --- | --- | --- | --- | --- | --- | --- | --- | --- | --- |
| COc1ccc(CNC(=O)c2cc(-c3cncc(Cl)c3)cnc2-c2ccccn2)nc1OC [MK-1064] | 6.6807 | 0.4544 | -59.909 | -3.175 | 5.723 | -2.067 | 2463.06 | -2.86 | 2.927 | -3.704 | 1020.2 | -2.212 | 12.3622 | 4.385 | 3.479 | -7.04 | 9.573 | 2.106 | 1.004 | 0.7274 | autophagy induction ([1]; Compound Concentration 0.5 uM, Timepoint 12 hours, 12 h, 0.5 µM): -1.649% and -1.281%; autophagy induction ([1]; Compound Concentration 0.5 uM, Timepoint 24 hours, 24 h, 0.5 µM): -0.5797% and -3.213%; autophagy induction ([1]; Compound Concentration 0.5 uM, Timepoint 36 hours, 36 h, 0.5 µM): -3.034% and -3.261%; autophagy induction ([1]; Compound Concentration 0.5 uM, Timepoint 60 hours, 60 h, 0.5 µM): -3.035% and -4.321%; autophagy induction ([1]; Compound Concentration 2 uM, Timepoint 12 hours, 12 h, 2 µM): 3.536% and 7.073%; autophagy induction ([1]; Compound Concentration 2 uM, Timepoint 24 hours, 24 h, 2 µM): -0.496% and 6.728%; autophagy induction ([1]; Compound Concentration 2 uM, Timepoint 36 hours, 36 h, 2 µM): -2.12% and 5.645%; autophagy induction ([1]; Compound Concentration 2 uM, Timepoint 60 hours, 60 h, 2 µM): -0.3513% and 7.579%; autophagy induction ([1]; Compound Concentration 10 uM, Timepoint 12 hours, 12 h, 10 µM): 0.9286% and 0.4822%; autophagy induction ([1]; Compound Concentration 10 uM, Timepoint 24 hours, 24 h, 10 µM): 1.419% and 1.256%; autophagy induction ([1]; Compound Concentration 10 uM, Timepoint 36 hours, 36 h, 10 µM): 0.4472% and 1.634%; autophagy induction ([1]; Compound Concentration 10 uM, Timepoint 60 hours, 60 h, 10 µM): 0.346% and 3.096%; autophagy induction [3, 12]: 0.3207%; autophagy induction [3, 13]: -2.025%; autophagy induction [3, 14]: -1.481%; autophagy induction [3, 15]: 2.712% |
| CN(C(=O)Cc1ccc(Cl)c(Cl)c1)C(CN1CCCC1)c1cccc(OCC(=O)O)c1.Cl (configuration not stated) | -12.8922 | -7.849 | -3.698 | -1.542 | -9.267 | -3.553 | -1.479 | -2.0456 | -0.2023 | 1.762 | 0.1182 | 0.3636 | 2.144 | -2.707 | 1.07 | 1.175 | -9.959 | -4.957 | -10.0899 | -9.274 | autophagy induction [1, 4]: -10.9051%; autophagy induction [1, 5]: -12.2301%; autophagy induction [1, 6]: -15.6398%; autophagy induction [1, 7]: -20.341%; autophagy induction [1, 8]: -5.691%; autophagy induction [1, 9]: -6.772%; autophagy induction [1, 10]: -9.058%; autophagy induction [1, 11]: -11.2679%; autophagy induction [1, 12]: -5.196%; autophagy induction [1, 13]: -4.57%; autophagy induction [1, 14]: -3.728%; autophagy induction [1, 15]: -2.992%; autophagy induction [3, 12]: -7.228%; autophagy induction [3, 13]: -6.505%; autophagy induction [3, 14]: 0.1565%; autophagy induction [3, 15]: 0.07233% |

Source: ChEMBL document CHEMBL5724696, “Autophagy assay results for EUbOPEN Chemogenomics Library” (2024)
